The values below come from US20180044350A1, “THERAPEUTIC CYCLIC COMPOUNDS AS IMMUNOMODULATORS” (priority 2015, published 2018).

This assay deals with T1, Recombinant mouse PD-L1 (Mus musculus, UniProt Q9EP73).
T1 construct: Fc (Fc chimera); purchased R&D Systems 1019-B7-100
T1 sequence (Q9EP73 with tags, fused parts or gaps limits assumed): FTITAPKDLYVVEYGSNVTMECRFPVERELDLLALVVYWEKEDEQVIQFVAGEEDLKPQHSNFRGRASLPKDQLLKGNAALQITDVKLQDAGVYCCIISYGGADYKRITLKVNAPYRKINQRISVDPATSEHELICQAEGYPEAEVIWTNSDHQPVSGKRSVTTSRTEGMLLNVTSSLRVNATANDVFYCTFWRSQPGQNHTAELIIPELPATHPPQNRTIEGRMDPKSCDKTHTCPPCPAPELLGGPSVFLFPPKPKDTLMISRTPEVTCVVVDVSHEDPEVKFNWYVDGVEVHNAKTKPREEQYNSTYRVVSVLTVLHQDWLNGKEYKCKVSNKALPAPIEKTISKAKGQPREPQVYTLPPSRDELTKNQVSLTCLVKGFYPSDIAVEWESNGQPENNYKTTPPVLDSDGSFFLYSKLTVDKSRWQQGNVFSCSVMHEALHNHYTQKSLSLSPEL
Put plainly: Rescue of mouse splenocyte proliferation in the presence of recombinant PD-L1 (CFSE proliferation assay). It is filed as cell-based. The settings on record: 100 nM compound; anti-CD3/CD28 stimulated CFSE-labelled mouse splenocytes + PD-L1, 72 h; normalised to stimulated splenocyte proliferation as 100%; read-out: Percent rescue of proliferation (@100 nM compound concentration). The procedure: Rescue of Mouse Splenocyte Proliferation in the Presence of Recombinant PD-L1
Recombinant mouse PD-L1 (rm-PDL-1, cat no: 1019-B7-100; R&D Systems) were used as the source of PD-L1.
Mouse splenocytes harvested from 6-8 weeks old C57 BL6 mice; RPMI 1640 (GIBCO, Cat #11875); DMEM with high glucose (GIBCO, Cat #D6429); Fetal Bovine Serum └Hyclone, Cat #SH30071.03┘; Penicillin (10000 unit/mL)-Streptomycin(10,000 μg/mL) Liquid (GIBCO, Cat #15140-122); MEM Sodium Pyruvate solution 100 mM (100×), Liquid (GIBCO, Cat #11360); Nonessential amino acid (GIBCO, Cat #11140); L-Glutamine (GIBCO, Cat #25030); Anti-CD3 antibody (eBiosciences—16-0032); Anti-CD28 antibody (eBiosciences—16-0281); ACK lysis buffer (1 mL) (GIBCO, Cat #-A10492); Histopaque (density-1.083 gm/mL) (SIGMA 10831); Trypan blue solution (SIGMA-T8154); 2 mL Norm Ject Luer Lock syringe-(Sigma 2014-12); 40 μm nylon cell strainer (BD FALCON 35230); Hemacytometer (Bright line-SIGMA Z359629); FACS Buffer (PBS/0.1% BSA): Phosphate Buffered Saline (PBS) pH 7.2 (HiMedia TS1006) with 0.1% Bovine Serum Albumin (BSA) (SIGMA A7050) and sodium azide (SIGMA 08591); 5 mM stock solution of CFSE: CFSE stock solution was prepared by diluting lyophilized CFSE with 180 μL of Dimethyl sulfoxide (DMSO C2H6SO, SIGMA-D-5879) and aliquoted in to tubes for further use. Working concentrations were titrated from 10 μM to 1 μM. (eBioscience-650850-85); 0.05% Trypsin and 0.02% EDTA (SIGMA 59417C); 96-well format ELISA plates (Corning CLS3390); BD FACS caliber (E6016); Recombinant mouse B7-H1/PDL1 Fc Chimera, (rm-PD-L1 cat no: 1019-B7-100).
Splenocytes harvested in a 50 mL falcon tube by mashing mouse spleen in a 40 μm cell strainer were further treated with 1 mL ACK lysis buffer for 5 min at room temperature. After washing with 9 mL of RPMI complete media, cells were re-suspended in 3 mL of 1×PBS in a 15 mL tube. 3 mL of Histopaque was added carefully to the bottom of the tube without disturbing overlaying splenocyte suspension. After centrifuging at 800×g for 20 min at room temperature, the opaque layer of splenocytes was collected carefully without disturbing/mixing the layers. Splenocytes were washed twice with cold 1×PBS followed by total cell counting using Trypan Blue exclusion method and used further for cell based assays.
Splenocytes were cultured in RPMI complete media (RPMI+10% fetal bovine serum+1 mM sodium pyruvate+10,000 units/mL penicillin and 10,000 μg/mL streptomycin) and maintained in a CO2 incubator with 5% CO2 at 37° C.
CFSE is a dye that passively diffuses into cells and binds to intracellular proteins. 1×10^6 cells/mL of harvested splenocytes were treated with 5 μM of CFSE in pre-warmed 1×PBS/0.1% BSA solution for 10 min at 37° C. Excess CFSE was quenched using 5 volumes of ice-cold culture media to the cells and incubated on ice for 5 min CFSE labelled splenocytes were further given three washes with ice cold complete RPMI media. CFSE labelled 1×10^5 splenocytes added to wells containing either MDA-MB231 cells (1×10^5 cells cultured in high glucose DMEM medium) or recombinant human PDL-1 (100 ng/mL) and test compounds. Splenocytes were stimulated with anti-mouse CD3 and anti-mouse CD28 antibody (1 μg/mL each) and the culture was further incubated for 72 h at 37° C. with 5% CO2. Cells were harvested and washed thrice with ice cold FACS buffer and % proliferation was analysed by flow cytometry with 488 nm excitation and 521 nm emission filters.
Percent splenocyte proliferation was analysed using cell quest FACS program and percent rescue of splenocyte proliferation by compound was estimated after deduction of % background proliferation value and normalising to % stimulated splenocyte proliferation (positive control) as 100%.
Stimulated splenocytes: Splenocytes+anti-CD3/CD28 stimulation.
Background proliferation: Splenocytes+anti-CD3/CD28+PD-L1.
Compound proliferation: Splenocytes+anti-CD3/CD28+PD-L1+Compound. […]
On to `O=C1COCCOCCNC(=O)[C@H](Cc2ccc(O)cc2)NC(=O)N2CCCC2C(=O)NNC(=O)[C@H](Cc2ccc(O)cc2)N1` (some centres unmarked) [Compound 1], for which the activation at 0.1 µM came to 76%. Under `CC(O)[C@@H]1NC(=O)N[C@@H](CC(N)=O)C(=O)NNC(=O)[C@H](CCCCN)NC(=O)COCCOCCNC1=O` (some centres unmarked) [Compound 2] stands 57%; under `CC(O)[C@@H]1NC(=O)N[C@@H](Cc2ccccc2)C(=O)NNC(=O)[C@H](CO)NC(=O)COCCOCCNC1=O` (some centres unmarked) [Compound 3], 66%; under `NCCCC[C@@H]1NC(=O)COCCOCCNC(=O)[C@H](CCCCN)NC(=O)N[C@@H](CCCCN)C(=O)NNC1=O` [Compound 5], 24%. The value for `CC(O)[C@@H]1NC(=O)N[C@@H](CCCCN)C(=O)NNC(=O)[C@H](CO)NC(=O)COCCOCCNC1=O` (some centres unmarked) [Compound 6] was 40%. Under `CCC(C)[C@@H]1NC(=O)N[C@@H](C(C)O)C(=O)NCCOCCOCC(=O)N[C@@H](CO)C(=O)NNC1=O` (some centres unmarked) [Compound 7] stands 23%; under `CC(O)[C@@H]1NC(=O)N[C@@H](CC(N)=O)C(=O)NNC(=O)[C@H](CC(=O)O)NC(=O)COCCOCCNC1=O` (some centres unmarked) [Compound 9], 46%. As for `O=C(O)C[C@@H]1NC(=O)COCCOCCNC(=O)[C@H](CC(=O)O)NC(=O)N[C@@H](CC(=O)O)C(=O)NNC1=O` [Compound 10], the activation at 0.1 µM is 53%.

Turning to `O=C1COCCOCCNC(=O)[C@H](CO)NC(=O)N[C@@H](CO)C(=O)NNC(=O)[C@H](CO)N1` [Compound 11], the activation at 0.1 µM worked out at 17%. Under `CC(O)[C@@H]1NC(=O)COCCOCCNC(=O)[C@H](C(C)O)NC(=O)N[C@@H](C(C)O)C(=O)NNC1=O` (some centres unmarked) [Compound 12] stands 91%; under `CC(C)C[C@@H]1NC(=O)N[C@@H](CC(N)=O)C(=O)NNC(=O)[C@H](CO)NC(=O)COCCOCCNC1=O` [Compound 13], 53%; under `CCC(C)[C@@H]1NC(=O)N[C@@H](CCC(=O)O)C(=O)NCCOCCOCC(=O)N[C@@H](CCC(N)=O)C(=O)NNC1=O` (some centres unmarked) [Compound 15], 40%. Turning to `CC(O)[C@@H]1NC(=O)N[C@@H](Cc2ccccc2)C(=O)NNC(=O)[C@H](CCCCN)NC(=O)COCCOCCNC1=O` (some centres unmarked) [Compound 16], the activation at 0.1 µM was determined as 30%.

Take `CCC(C)[C@@H]1NC(=O)N[C@@H](CCC(N)=O)C(=O)NCCOCCOCC(=O)N[C@@H](CCC(=O)O)C(=O)NNC1=O` (some centres unmarked) [Compound 17]: the activation at 0.1 µM amounted to 38%.
